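Interpolation was linear, between the two tested concentrations surrounding the appropriate level; five concentrations were tested over 48 hours in 96-well plates. GI50 is the concentration that inhibits growth by half. At the TGI there is no net growth.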
Tests used:
Experiment in all cases: NCI anticancer screen, dose series, 48 h
[1] = tested on: LOX IMVI melanoma
[2] = tested on: SNB-19 CNS
[3] = tested on: RXF 393 renal
[4] = tested on: HOP-92 NSCLC
[5] = tested on: UACC-62 melanoma
[6] = tested on: COLO 205 colon
[7] = tested on: CCRF-CEM leukemia
[8] = tested on: SF-295 CNS
[9] = tested on: MOLT-4 leukemia
[10] = tested on: EKVX NSCLC

With `O=C1/C(=C/c2ccccc2)CN(C(=O)/C=C/c2ccccc2)C/C1=C\c1ccccc1` the TGI [1] was 7.1 µM, the TGI [2] was 25.9 µM and the TGI [3] was 30.4 µM. It also gave a TGI [4] of 62.2 µM, a TGI [5] of 16.2 µM and a TGI [6] of 19.4 µM. It also gave a TGI [7] of 9 µM, a TGI [8] of 17 µM and a TGI [9] of 35.4 µM. The TGI [10] was 50.1 µM.

In the case of `CC(C)(C)c1ccc(OCCCCCCCN2CCNCC2)cc1`, the GI50 [1] was 1.52 µM, the TGI [1] was 3.06 µM and the GI50 [2] was 3.42 µM. It also gave a TGI [2] of 12.8 µM, a GI50 [3] of 1.69 µM and a TGI [3] of 3.37 µM. For the same compound, the GI50 [4] was 1.72 µM, the TGI [4] was 6.11 µM and the GI50 [5] was 1.88 µM. It also gave a TGI [5] of 3.6 µM, a GI50 [6] of 1.49 µM and a TGI [6] of 3.24 µM. The GI50 [7] was 1.62 µM, the TGI [7] was 4.1 µM and the GI50 [8] was 1.84 µM. The TGI [8] was 3.78 µM, the GI50 [9] was 1.7 µM and the TGI [9] was 3.71 µM. It also gave a GI50 [10] of 3.04 µM and a TGI [10] of 12.7 µM.

Work on `NNC(=O)C(=O)N/N=C1\CCCC1C(=O)CCC(=O)Nc1cccc(Cl)c1` (centres undefined) yielded a TGI [1] greater than 100 µM, a TGI [2] greater than 100 µM and a TGI [3] greater than 100 µM. The TGI [4] was greater than 100 µM, the TGI [5] was greater than 100 µM and the TGI [6] was greater than 100 µM. It also gave a TGI [7] greater than 100 µM, a TGI [8] greater than 100 µM and a TGI [9] greater than 100 µM. The TGI [10] was greater than 100 µM.

`N#C/C(=C\c1ccccn1)c1nc2ccccc2o1` was tested, and the GI50 [1] was 17 µM, the TGI [1] was 38.1 µM and the GI50 [2] was 17 µM. It also gave a TGI [2] of 40 µM, a GI50 [3] of 28.3 µM and a TGI [3] of 82.2 µM. For the same compound, the GI50 [4] was 0.0586 µM, the TGI [4] was 20.7 µM and the GI50 [5] was 21.3 µM. For the same compound, the TGI [5] was 46.2 µM, the GI50 [6] was 44.9 µM and the TGI [6] was greater than 100 µM. For the same compound, the GI50 [7] was 1.4 µM, the TGI [7] was 69.6 µM and the GI50 [8] was 84.2 µM. It also gave a TGI [8] greater than 100 µM, a GI50 [9] of 24.6 µM and a TGI [9] of 82.6 µM. The GI50 [10] was 24.2 µM and the TGI [10] was greater than 100 µM.

Work on `Cc1cc(N)c2cc(NC(=O)/C=C\c3ccccc3Cl)ccc2n1` yielded a GI50 [1] of 0.212 µM, a TGI [1] of 0.447 µM and a GI50 [2] of 1.56 µM. For the same compound, the TGI [2] was 2.95 µM, the GI50 [3] was 1.45 µM and the TGI [3] was 2.91 µM. For the same compound, the GI50 [4] was 1.56 µM, the TGI [4] was 3.27 µM and the GI50 [5] was 1.05 µM. It also gave a TGI [5] of 2.49 µM, a GI50 [6] of 0.266 µM and a TGI [6] of 0.597 µM. The GI50 [7] was 0.204 µM, the TGI [7] was 0.448 µM and the GI50 [8] was 1.31 µM. For the same compound, the TGI [8] was 2.71 µM, the GI50 [9] was 1.09 µM and the TGI [9] was 2.54 µM. The GI50 [10] was 1.53 µM and the TGI [10] was 3.1 µM.

`NC(=O)c1c(-c2ccccc2)c(-c2ccccc2)cc2c(=O)c3ccccc3[nH]c12` showed a TGI [1] greater than 100 µM, a TGI [2] of 52.4 µM and a TGI [4] of 55.5 µM. It also gave a TGI [5] of 96.8 µM, a TGI [6] greater than 100 µM and a TGI [7] greater than 100 µM. The TGI [8] was greater than 100 µM, the TGI [9] was 44.7 µM and the TGI [10] was greater than 100 µM.

Compound `O=C1c2ccccc2-n2c1nc1ccc([N+](=O)[O-])cc1c2=O` has a TGI [1] of 51.7 µM, a TGI [2] greater than 100 µM and a TGI [3] greater than 100 µM. The TGI [4] was greater than 100 µM, the TGI [5] was greater than 100 µM and the TGI [6] was greater than 100 µM. It also gave a TGI [7] greater than 100 µM, a TGI [8] of 79.7 µM and a TGI [9] greater than 100 µM. It also gave a TGI [10] greater than 100 µM.

— PubChem BioAssay (NCI)
